Earlier results on one molecule are cited in patent US20100247673A1, “Thyroid protection in sickle cell anemia treatment” (priority 2009, published 2010).

The test system of this data set is erythrocytes. The settings on record: about 4 mols incorporated per mol of hemoglobin tetramer.

As to `N#C[O-].[K+]` [potassium cyanate], the “erythrocytes prevented from sickling” value was “up to 80%”.
